Results: patent publication US10597390B2, “Indoles for use in influenza virus infection” (Janssen Sciences Ireland UC, priority 2014, dated 2020)

What was measured:
[1] = test system: influenza virus A/Taiwan/1/86 (H1N1); assay: organism not typed; type: cell-based; settings: CPE in MDCK cells, three days post-virus exposure, ATPlite
in vitro = settings: dog, TOX MDCK CC50

| SMILES | IC50 ([1]; MDCK, 72 h) [nM] | CC50 at 3 days (in vitro) [nM] | IC50 [1] [nM] |
| --- | --- | --- | --- |
| CC(C)(C)[C@@H](CC(=O)O)Nc1nc(-c2c[nH]c3c(F)cc(F)cc23)c(C(F)(F)F)cc1F (single isomer, unassigned) [Compound 18, (R*)-3-((6-(5,7-difluoro-1H-indol-3-yl)-3-fluoro-5-(trifluoromethyl)pyridin-2-yl)amino)-4,4-dimethylpentanoic acid] | > 25000 | 210 | – |
| Cn1cnc(C(=O)N[C@@H]2CCC[C@H](Nc3nc(-c4c[nH]c5c(F)cc(C#N)cc45)ncc3F)C2)c1 (racemic) [Compound 174] | 10 | > 25000 | – |
| CC(C)(c1cccs1)C(CC(=O)O)Nc1nc(-c2c[nH]c3c(F)cc(F)cc23)ncc1F (stereo not shown) [Compound 230] | 41 | 4000 | – |
| Cn1[nH]c(=O)cc1C(=O)N[C@@H]1CCC[C@H](Nc2nc(-c3c[nH]c4c(F)cc(F)cc34)ncc2F)C1 [Compound 160] | 0.6 | > 25000 | – |
| Cc1cc(C(=O)N[C@@H]2CCC[C@H](Nc3nc(-c4c[nH]c5c(F)cc(F)cc45)c(C#N)cc3F)C2)nn1C (racemic) [Compound 210] | – | > 25000 | 12 |
| Cn1cnc(C(=O)N[C@@H]2CCC[C@H](Nc3nc(-c4c[nH]c5c(F)cc(F)cc45)c(C#N)cc3F)C2)c1 (racemic) [Compound 3] | 5 | > 25000 | – |
| Cn1cnc(C(=O)N[C@@H]2CCC[C@H](Nc3nc(-c4c[nH]c5c(F)cc(Cl)cc45)ncc3F)C2)c1 [Compound 26] | 3 | 7900 | – |
| CC(C)(C)C(Cc1nnn[nH]1)Nc1nc(-c2c[nH]c3c(F)cc(F)cc23)ncc1F (stereo not shown) [Compound 19, 2-(5,7-difluoro-1H-indol-3-yl)-N-(3,3-dimethyl-1-(1H-tetrazol-5-yl)butan-2-yl)-5-fluoropyrimidin-4-amine] | 160 | 3700 | – |
| Cn1nc(C(=O)O)cc1C(=O)N[C@@H]1CCC[C@H](Nc2nc(-c3c[nH]c4c(F)cc(F)cc34)ncc2F)C1 (relative stereo) [Compound 159, 5-(((1R*,3S*)-3-((2-(5,7-difluoro-1H-indol-3-yl)-5-fluoropyrimidin-4-yl)amino)cyclohexyl)carbamoyl)-1-methyl-1H-pyrazole-3-carboxylic acid] | 310 | > 25000 | – |
| O=C(O)[C@H]1C2CCC(CC2)[C@@H]1Nc1nc(-c2c[nH]c3c(F)cc(Cl)cc23)ncc1F [Compound 30] | 3 | 200 | – |
| O=C(NC1CCOC1)N[C@@H]1CCC[C@H](Nc2nc(-c3c[nH]c4c(F)cc(F)cc34)ncc2F)C1 (relative stereo) [Compound 15, 1-((1R*,3S*)-3-((2-(5,7-difluoro-1H-indol-3-yl)-5-fluoropyrimidin-4-yl)-amino)cyclohexyl)-3-(tetrahydrofuran-3-yl)urea] | 42 | > 25000 | – |
| N#Cc1cc(F)c(N[C@H]2CCC[C@@H](NC(=O)[C@@H](O)c3ccccc3)C2)nc1-c1c[nH]c2c(F)cc(F)cc12 [Compound 213] | 390 | 3400 | – |
| O=C(N[C@@H]1CCC[C@H](Nc2nc(-c3c[nH]c4c(F)cc(F)cc34)ncc2F)C1)c1cn(CCO)cn1 [Compound 88] | 7 | 11500 | – |
| N#Cc1cc(F)c(N[C@@H]2CCC[C@H](NC(=O)N3CCCC3)C2)nc1-c1c[nH]c2c(F)cc(F)cc12 [Compound 162] | – | > 23000 | 0.5 |
| CC(C)(C)C(CC(=O)O)Nc1nc(-c2c[nH]c3c(F)cc(Cl)cc23)ncc1F (stereo not shown) [Compound 39] | 11 | 860 | – |
| N#Cc1cc(F)c(N[C@H]2CCC[C@@H](NC(=O)c3ccccn3)C2)nc1-c1c[nH]c2c(F)cc(F)cc12 (racemic) [Compound 208] | 6 | > 25000 | – |
| Cc1nc(C(=O)N[C@H]2CCC[C@@H](Nc3nc(-c4c[nH]c5c(F)cc(F)cc45)c(C(F)(F)F)cc3F)C2)c(C)o1 (racemic) [Compound 179] | 81 | > 25000 | – |
| Cc1[nH]nc(C(=O)N[C@@H]2CCC[C@H](Nc3nc(-c4c[nH]c5c(F)cc(F)cc45)ncc3F)C2)c1N [Compound 86] | 2 | 3100 | – |
| C[C@H]1CC[C@H](C)N1C(=O)N[C@H]1CCC[C@@H](Nc2nc(-c3c[nH]c4c(F)cc(F)cc34)ncc2F)C1 (relative stereo) [Compound 14, N-((1R*3S*)-3-((2-(5,7-difluoro-1H-indol-3-yl)-5-fluoropyrimidin-4-yl)amino)cyclohexyl)-trans-2,5-dimethylpyrrolidine-1-carboxamide] | 140 | 10400 | – |
| Cn1cnc(C(=O)N[C@H]2CCC[C@@H](Nc3nc(-c4c[nH]c5c(F)cc(F)cc45)c(C(F)(F)F)cc3F)C2)c1 (relative stereo) [Compound 16, N-((1S*,3R*)-3-((6-(5,7-difluoro-1H-indol-3-yl)-3-fluoro-5-(trifluoromethyl)pyridin-2-yl)amino)cyclohexyl)-1-methyl-1H-imidazole-4-carboxamide] | 22 | 3900 | – |

| SMILES | IC50 ([1]; MDCK, 72 h) [nM] | CC50 at 3 days (in vitro) [nM] | IC50 [1] [nM] |
| --- | --- | --- | --- |
| O=C(NC1COCC(Nc2nc(-c3c[nH]c4c(F)cc(F)cc34)ncc2F)C1)c1cnn[nH]1 (stereo not shown) [Compound 261, N-(5-((2-(5,7-difluoro-1H-indol-3-yl)-5-fluoropyrimidin-4-yl)amino)-tetrahydro-2H-pyran-3-yl)-1H-1,2,3-triazole-5-carboxamide] | 1000 | > 25000 | – |
| O=C(N[C@H]1CCC[C@@H](Nc2nc(-c3c[nH]c4c(F)cc(F)cc34)c(-c3nnc[nH]3)cc2F)C1)N1CCCC1 (racemic) [Compound 24] | 420 | > 25000 | – |
| O=C(O)[C@@H]1CCCC[C@@H]1Nc1nc(-c2c[nH]c3c(F)cc(F)cc23)ncc1F [Compound 254] | 320 | 14700 | – |
| Cc1cc(F)c2[nH]cc(-c3ncc(F)c(N[C@H]4C5CCC(CC5)[C@@H]4C(=O)O)n3)c2c1 (racemic) [Compound 164] | 11 | 1700 | – |
| CC1(C(CC(=O)O)Nc2nc(-c3c[nH]c4c(F)cc(F)cc34)ncc2F)CCCC1 (stereo not shown) [Compound 249] | 11 | 1200 | – |
| CC(C)(C)[C@H](CC(=O)O)Nc1nc(-c2c[nH]c3c(F)cc(F)cc23)c(C(F)(F)F)cc1F (single isomer, unassigned) [Compound 17, (S*)-3-((6-(5,7-difluoro-1H-indol-3-yl)-3-fluoro-5-(trifluoromethyl)pyridin-2-yl)amino)-4,4-dimethylpentanoic acid] | 37 | 6200 | – |
| Cn1cnc(C(=O)N[C@@H]2CCC[C@H](Nc3nc(-c4c[nH]c5c(F)cc(Cl)cc45)c(C#N)cc3F)C2)c1 [Compound 185] | 4 | 10200 | – |
| Cn1cnc(C(=O)N[C@H]2CCC[C@H](Nc3nc(-c4c[nH]c5c(F)cc(F)cc45)c(C#N)cc3F)C2)c1 [Compound 183] | 1100 | > 25000 | – |
| CCOC(=O)NCc1cc(F)c(NC(CC(=O)O)C(C)(C)C)nc1-c1c[nH]c2c(F)cc(F)cc12 (stereo not shown) [Compound 256] | 290 | 13100 | – |
| Cn1nc(NS(C)(=O)=O)cc1C(=O)N[C@@H]1CCC[C@H](Nc2nc(-c3c[nH]c4c(F)cc(F)cc34)ncc2F)C1 (relative stereo) [Compound 226, N-((1R*,3S*)-3-((2-(5,7-difluoro-1H-indol-3-yl)-5-fluoropyrimidin-4-yl)-amino)cyclohexyl)-1-methyl-3-(methylsulfonamido)-1H-pyrazole-5-carboxamide] | 3 | 17500 | – |
| CC(C)(C)C(CC(=O)O)Nc1nc(-c2c[nH]c3c(F)cc(F)cc23)ncc1F (racemic) [Compound 2] | 11 | 5200 | – |
| Cn1nc(CO)cc1C(=O)N[C@@H]1CCC[C@H](Nc2nc(-c3c[nH]c4c(F)cc(F)cc34)ncc2F)C1 (relative stereo) [Compound 262, N-((1R*,3S*)-3-((2-(5,7-difluoro-1H-indol-3-yl)-5-fluoropyrimidin-4-yl)-amino)cyclohexyl)-3-(hydroxymethyl)-1-methyl-1H-pyrazole-5-carboxamide] | 46 | > 25000 | – |
| O=C(N[C@@H]1CCC[C@H](Nc2nc(-c3c[nH]c4c(F)ccc(F)c34)ncc2F)C1)N1CCCC1 (racemic) [Compound 7] | 460 | > 25000 | – |
| Cn1cnc(C(=O)N[C@@H]2CCC[C@H](Nc3nc(-c4c[nH]c5c(F)cc(F)cc45)c(C#N)cc3F)C2)c1 [Compound 184] | 3 | > 25000 | – |
| O=C(N[C@H]1CCC[C@@H](Nc2nc(-c3c[nH]c4c(F)cc(F)cc34)ncc2F)C1)N1CCCC1 (single isomer, unassigned) [Compound 9, N-((1R*,3S*)-3-((2-(5,7-difluoro-1H-indol-3-yl)-5-fluoropyrimidin-4-yl)-amino)cyclohexyl)pyrrolidine-1-carboxamide] | 3 | > 25000 | – |
| Cn1cnc(C(=O)N[C@H]2CCC[C@@H](Nc3nc(-c4c[nH]c5c(F)cc(Cl)cc45)c(C#N)cc3F)C2)c1 (racemic) [Compound 189] | 4 | 7300 | – |
| O=C(N[C@@H]1CCC[C@H](Nc2nc(-c3c[nH]c4c(F)cc(F)cc34)ncc2F)C1)c1ccc(O)nn1 [Compound 203] | 2 | > 25000 | – |
| COCc1cc(C(=O)N[C@@H]2CCC[C@H](Nc3nc(-c4c[nH]c5c(F)cc(F)cc45)ncc3F)C2)no1 [Compound 87] | 40 | 2400 | – |
| Cc1cc(C(=O)N[C@H]2CCC[C@@H](Nc3nc(-c4c[nH]c5c(F)cc(F)cc45)c(C(F)(F)F)cc3F)C2)nn1C (racemic) [Compound 177] | 38 | 14700 | – |
| CC(C)c1cc(C(=O)N[C@H]2CCC[C@@H](Nc3nc(-c4c[nH]c5c(F)cc(F)cc45)c(C(F)(F)F)cc3F)C2)no1 (racemic) [Compound 182] | – | > 25000 | – |
